Our source for the IC50 values is US20120289501A1, “Benzene-fused 6-membered oxygen-containing heterocyclic derivatives of bicyclic heteroaryls” (NOVARTIS AG, priority 2009, published 2012).

Usually pIC50 stands for the negative decadic logarithm of the IC50, by convention in mol/L. A lower pIC50 goes with a high IC50.

pIC50: −log10 of the molar value. Where only a bound is given, the exact number is not on record here.

IGF1R, sequence (P08069 31-1367): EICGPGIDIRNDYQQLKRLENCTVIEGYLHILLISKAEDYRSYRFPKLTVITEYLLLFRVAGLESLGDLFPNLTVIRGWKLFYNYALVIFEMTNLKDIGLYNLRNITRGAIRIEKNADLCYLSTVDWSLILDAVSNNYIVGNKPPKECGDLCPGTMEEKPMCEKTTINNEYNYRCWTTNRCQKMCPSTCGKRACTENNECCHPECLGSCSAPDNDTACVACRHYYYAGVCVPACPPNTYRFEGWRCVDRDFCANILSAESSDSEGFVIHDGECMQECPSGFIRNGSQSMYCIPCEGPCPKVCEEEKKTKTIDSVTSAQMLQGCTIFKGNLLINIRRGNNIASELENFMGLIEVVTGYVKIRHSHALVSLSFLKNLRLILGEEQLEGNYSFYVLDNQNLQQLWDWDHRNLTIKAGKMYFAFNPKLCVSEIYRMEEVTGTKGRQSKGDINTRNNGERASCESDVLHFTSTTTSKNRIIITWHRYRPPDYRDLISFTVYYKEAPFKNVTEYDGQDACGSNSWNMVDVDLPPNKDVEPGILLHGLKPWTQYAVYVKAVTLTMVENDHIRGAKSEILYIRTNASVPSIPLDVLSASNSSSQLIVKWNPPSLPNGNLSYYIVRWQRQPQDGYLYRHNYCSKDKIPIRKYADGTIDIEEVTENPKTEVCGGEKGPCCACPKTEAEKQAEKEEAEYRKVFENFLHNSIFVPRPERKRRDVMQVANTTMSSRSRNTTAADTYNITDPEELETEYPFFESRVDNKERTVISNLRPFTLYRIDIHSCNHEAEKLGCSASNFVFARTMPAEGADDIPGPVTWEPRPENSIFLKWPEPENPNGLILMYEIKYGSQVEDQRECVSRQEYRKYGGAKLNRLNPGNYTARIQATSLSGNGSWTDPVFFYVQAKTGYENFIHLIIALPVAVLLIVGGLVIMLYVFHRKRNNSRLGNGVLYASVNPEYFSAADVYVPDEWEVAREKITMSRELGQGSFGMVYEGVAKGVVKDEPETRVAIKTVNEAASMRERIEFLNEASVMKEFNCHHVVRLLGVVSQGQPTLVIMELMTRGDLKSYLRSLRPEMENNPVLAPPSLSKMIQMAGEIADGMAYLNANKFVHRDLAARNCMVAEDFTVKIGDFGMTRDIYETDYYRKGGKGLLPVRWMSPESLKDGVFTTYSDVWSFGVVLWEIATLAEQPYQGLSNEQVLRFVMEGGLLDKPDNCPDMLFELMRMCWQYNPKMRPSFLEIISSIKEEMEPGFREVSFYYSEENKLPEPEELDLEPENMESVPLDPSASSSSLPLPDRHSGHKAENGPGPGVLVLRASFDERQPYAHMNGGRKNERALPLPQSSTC

This test addresses IGF1R (Homo sapiens, UniProt P08069). Put plainly: Cellular IGF-1R assay: inhibition of IGF1R phosphorylation in transduced Hek293 cells, capture ELISA (MSD). It counts as cell-based. Further details: Hek293 cells transduced with the corresponding receptors; expressed in transfected cells; host or cells: Hek293 (Hek293-IGF1R). On the procedure: In this assay the activity of the compounds of the invention against Insulin-like growth factor I (IGF-1) induced autophosphorylation of the IGF-IR is determined. The assay is conducted as follows: Compound-mediated inhibition of IGF1R and INSR phosphorylation in Hek293 cells transduced with the corresponding receptors is assessed in a capture ELISA format using the MSD (Meso Scale Discovery) platform. Briefly, 30′000 cells washed and diluted in starvation medium (DMEM high glucose supplemented with 0.1% BSA) are seeded in 90 μL per well into 96-well plates pre-coated with poly-D-lysine (0.1 mg/mL in PBS/0). After 24 h incubation at 37° C. and 5% CO2, dose-response effects are determined with 3-fold serial compound dilutions, starting at 10 μM. The final vehicle concentration is 0.1% DMSO in all wells. Following pre-incubation with compounds for 1 h, receptor phosphorylation is triggered by a 10 min exposure to 1.0 ng/μL IGF for Hek293-IGF1R cells, and 5.0 ng/μL insulin for Hek293-InsR cells. Cell lysis is achieved by addition of 80 μL MSD lysis buffer per aspirated well, incubation on ice for 20 min, and a freeze-thaw cycle. Target phosphorylation is then assessed by transferring volumes corresponding to approx. 6 μg Hek293-IGF1R or 0.6 μg Hek293-InsR lysates to MSD assay plates pre-coated with total-IGF1R or total-InsR Abs, respectively. After incubation for 2 h at rt, wells are exposed for 1 hr to a rabbit monoclonal antibody (CST #3024, 1:1000) detecting pIGF1R(Tyr1135/1136) as well as pINSR(Tyr1150/1151). Immune complexes are detected by a SULFO-Tag™-coupled anti-rabbit IgG antibody in the presence of 150 μL MSD read-buffer. Light emission at 620 nm triggered by application of electric current is recorded on a MSD SectorImager 6000. Acquired raw data (mean Ru-ECL units) are processed in an Excel analysis template. The plate blank (MSD lysis buffer) is subtracted from all data points. The effect of a particular test compound concentration on receptor phosphorylation is expressed relative to the window defined by ligand-stimulated vs unstimulated control cells (set as 100%). IC50 values [nM] are determined using 4-parametric curve-fitting (XLfit software, V4.3.2). Alternatively, the assay can be conducted with a slightly different format; Compound-mediated inhibition of IGF-1R and InsR phosphorylation in HEK293 cells overexpressing the corresponding receptors were assessed by quantitative Western blot using an Odyssey infrared imager as readout.
Compound-mediated inhibition of IGF1R and INSR phosphorylation in Hek293 cells transduced with the corresponding receptors is assessed in a capture ELISA format using the MSD (Meso Scale Discovery) platform. Briefly, 30′000 cells washed and diluted in starvation medium (DMEM high glucose supplemented with 0.1% BSA) are seeded in 90 μL per well into 96-well plates pre-coated with poly-D-lysine (0.1 mg/mL in PBS/O). After 24 h incubation at 37° C. and 5% CO2, dose-response effects are determined with 3-fold serial compound dilutions, starting at 10 μM. The final vehicle concentration is 0.1% DMSO in all wells. Following pre-incubation with compounds for 1 h, receptor phosphorylation is triggered by a 10 min exposure to 1.0 ng/μL IGF for Hek293-IGF1R cells, and 5.0 ng/μL insulin for Hek293-InsR cells. Cell lysis is achieved by addition of 80 μL MSD lysis buffer per aspirated well, incubation on ice for 20 min, and a freeze-thaw cycle. Target phosphorylation is then assessed by transferring volumes corresponding to approx. 6 μg Hek293-IGF1R or 0.6 μg Hek293-lnsR lysates to MSD assay plates pre-coated with total-IGF1R or total-lnsR Abs, respectively. After incubation for 2 h at rt, wells are exposed for 1 hr to a rabbit monoclonal antibody (CST #3024, 1:1000) detecting pIGF1R(Tyr1135/1136) as well as pINSR(Tyr1150/1151). Immune complexes are detected by a SULFO-Tag™-coupled anti-rabbit IgG antibody in the presence of 150 μL MSD read-buffer. […]
`NC(=O)[C@@H]1CCCN1C[C@H]1C[C@@H](c2nc(-c3ccc4c(c3)OC(c3ccccc3)CC4)c3c(N)nccn32)C1` (mixture of isomers) [Example 4, 1-{cis-3,8-Amino-1-((R)-2-phenyl-chroman-7-yl)-imidazo[1,5-a]pyrazin-3-yl]-cyclobutylmethyl}-(S)-pyrrolidine-2-carboxylic acid amide and 1-{cis-3-[8-amino-1-((S)-2-phenyl-chroman-7-yl)-imidazo[1,5-a]pyrazin-3-yl]-cyclobutylmethyl}-(S)-pyrrolidine-2-carboxylic acid amide] gave a pIC50 of 6.46. The same measure for `Nc1ncnc2c1c(-c1ccc3c(c1)OC(c1ccccc1)CC3)cn2[C@H]1C[C@@H](CN2CCC[C@H]2CO)C1` (mixture of isomers) [Example 14, (1-{cis-3-[4-Amino-5-((R)-2-phenyl-chroman-7-yl)-pyrrolo[2,3-d]pyrimidin-7-yl]-cyclobutylmethyl}-(S)-pyrrolidin-2-yl)-methanol and (1-{cis-3-[4-amino-5-[((S)-2-phenyl-chroman-7-yl)-pyrrolo[2,3-d]pyrimidin-7-yl]-cyclobutylmethyl}-(S)-pyrrolidin-2-yl)-methanol]: above 8.30; for `Nc1ncnc2c1c(-c1ccc3c(c1)OC(C1CCCO1)CC3)cn2C1CC(O)(CO)C1` (mixture of isomers) [Example 29, (E)-3-{4-Amino-5-[2-(tetrahydro-furan-2-yl)-chroman-7-yl]-pyrrolo[2,3-d]pyrimidin-7-yl}-1-hydroxymethyl-cyclobutanol]: 7.30. The same measure for `Nc1ncnc2c1c(-c1ccc3c(c1)OC(C1CCCO1)CC3)cn2C1CC(CN2CC3CC2CS3(=O)=O)C1` (mixture of isomers) [Example 66, 7-[cis-3-((S,S)-2,2-dioxo-2λ6-thia-5-aza-bicyclo[2,2,1]hept-5-ylmethyl)-cyclobutyl]-5-[2-trans-(tetrahydro-furan-2-yl-chroman-7-yl)-7H-pyrrolo[2,3-d]pyrimidin-4-ylamine]: 7.62; for `Nc1ncnc2c1c(-c1ccc3c(c1)OC(C1CCCO1)CC3)cn2C1CC(CN2CC3CC2CS3(=O)=O)C1` (mixture of isomers) [Example 67, 7-[cis-3-((S,S)-2,2-dioxo-2λ6-thia-5-aza-bicyclo[2,2,1]hept-5-ylmethyl)-cyclobutyl]-5-[2-cis-(tetrahydro-furan-2-yl-chroman-7-yl)-7H-pyrrolo[2,3-d]pyrimidin-4-ylamine]: 7.77. The figure for `Nc1ncnc2c1c(-c1ccc3c(c1)OC(c1ccccc1)CC3)cn2[C@H]1C[C@@H](CO)C1` (mixture of isomers) [Example 1, (R,S)-{cis-3-[4-Amino-5-(2-phenyl-chroman-7-yl)-pyrrolo[2,3-d]pyrimidin-7-yl]-cyclobutyl}-methanol] is 7.66 to 7.96; for `Nc1ncnc2c1c(-c1ccc3c(c1)OC(c1ccccc1)CC3)cn2[C@H]1C[C@H](CO)C1` (mixture of isomers) [Example 2, (R,S)-{Trans-3-[4-amino-5-(2-phenyl-chroman-7-yl)-pyrrolo[2,3-d]pyrimidin-7-yl]-cyclobutyl}-methanol] it is 6.99 to 7.52.

Take `Nc1nccn2c1c(-c1ccc3c(c1)OC(c1ccccc1)CC3)nc2[C@H]1C[C@@H](CO)C1` (mixture of isomers) [Example 3, (R,S)-{cis-3-[8-Amino-1-(2-phenyl-chroman-7-yl)-imidazo[1,5-a]pyrazin-3-yl]-cyclobutyl}-methanol]: the negative-log IC50 (pIC50) is 7.12. Consider `Nc1ncnc2c1c(-c1ccc3c(c1)OC(c1ccccc1)CC3)cn2[C@H]1C[C@@H](CN2CCS(=O)(=O)CC2)C1` (mixture of isomers) [Example 6, (R,S)-7-[cis-3-(1,1-Dioxo-thiomorpholin-4-ylmethyl)-cyclobutyl]-5-(2-phenyl-chroman-7-yl)-7H-pyrrolo[2,3-d]pyrimidin-4-ylamine], for which the pIC50 is 8.52. The same measure for `Cc1nccn1C[C@H]1C[C@@H](c2nc(-c3ccc4c(c3)OC(c3ccccc3)CC4)c3c(N)nccn32)C1` (mixture of isomers) [Example 7, (R,S)-3-[cis-3-(2-Methyl-imidazol-1-ylmethyl)-cyclobutyl]-1-(2-phenyl-chroman-7-yl)-imidazo[1,5-a]pyrazin-8-ylamine]: 7.59; for `Nc1ncnc2c1c(-c1ccc3c(c1)OC(c1ccccc1)CC3)cn2[C@H]1C[C@@](O)(CO)C1` (mixture of isomers) [Example 8, (R,S)-(E)-3-[4-Amino-5-(2-phenyl-chroman-7-yl)-pyrrolo[2,3-d]pyrimidin-7-yl]-1-hydroxymethyl-cyclobutanol]: 7.02.

Turning to `Nc1ncnc2c1c(-c1ccc3c(c1)OC(c1ccccc1)CC3)cn2[C@H]1C[C@](O)(CO)C1` (mixture of isomers) [Example 9, (R,S)—(Z)-3-[4-amino-5-(2-phenyl-chroman-7-yl)-pyrrolo[2,3-d]pyrimidin-7-yl]-1-hydroxymethyl-cyclobutanol], the pIC50 is 6.80. The figure for `NC[C@H]1C[C@@H](n2cc(-c3ccc4c(c3)OC(c3ccccc3)CC4)c3c(N)ncnc32)C1` (mixture of isomers) [Example 13, (R,S)-7-(cis-3-Aminomethyl-cyclobutyl)-5-(2-phenyl-chroman-7-yl)-7H-pyrrolo[2,3-d]pyrimidin-4-ylamine] is 7.41; for `Nc1ncnc2c1c(-c1ccc3c(c1)OC(c1ccccc1)CC3)cn2[C@H]1C[C@@H](Cn2ccnc2CO)C1` (mixture of isomers) [Example 18, (R,S)-(1-{cis-3-[4-Amino-5-(2-phenyl-chroman-7-yl)-pyrrolo[2,3-d]pyrimidin-7-yl]-cyclobutylmethyl}-1H-imidazol-2-yl)-methanol] it is 7.85; for `Nc1ncnc2c1c(-c1ccc3c(c1)OC(c1ccccc1)C=C3)cn2[C@H]1C[C@@H](CO)C1` (mixture of isomers) [Example 23, (R,S)-{cis-3-[4-Amino-5-(2-phenyl-2H-chromen-7-yl)-pyrrolo[2,3-d]pyrimidin-7-yl]-cyclobutyl}-methanol] it is 7.92. As to `Nc1ncnc2c1c(-c1ccc3c(c1)OC(c1ccccc1)CC3)cn2[C@H]1C[C@@H](CN2CCNC(=O)C2)C1` (mixture of isomers) [Example 28, (R,S)-4-{3-[4-amino-5-(2-phenyl-chroman-7-yl)-pyrrolo[2,3-d]pyrimidin-7-yl]-cyclobutylmethyl}-piperazin-2-one], the pIC50 is 7.47. Against the preceding compound, the pIC50 is 0.45 log units lower. The same measure for `Nc1ncnc2c1c(-c1ccc3c(c1)OC(c1ccccc1)CC3)cn2[C@H]1C[C@@H](CN2[C@@H]3CC[C@H]2C[C@H](O)C3)C1` (mixture of isomers) [Example 36, (R,S)-8-{cis-3-[4-Amino-5-(2-phenyl-chroman-7-yl)-pyrrolo[2,3-d]pyrimidin-7-yl]-cyclobutylmethyl}-8-aza-bicyclo[3.2.1]octan-3-ol]: 7.06; for `Nc1ncnc2c1c(-c1ccc3c(c1)OC(c1ccccc1)CC3)cn2[C@H]1CC[C@@H](NC(=O)C2CC2)CC1` (mixture of isomers) [Example 51, (±)-N-(cis-4-(4-amino-5-(2-phenylchroman-7-yl)-7H-pyrrolo[2,3-d]pyrimidin-7-yl)cyclohexyl)cyclopropanecarboxamide]: 6.87. The figure for `CC(C)C(=O)N[C@H]1CC[C@@H](n2cc(-c3ccc4c(c3)OC(c3ccccc3)CC4)c3c(N)ncnc32)CC1` (mixture of isomers) [Example 52, (±)-N-(cis-4-(4-amino-5-(2-phenylchroman-7-yl)-7H-pyrrolo[2,3-d]pyrimidin-7-yl)cyclohexyl)isobutyramide] is 7.00.
